From patent US8168232B2, “Formulations and methods of using nitric oxide mimetics in cancer treatment” (priority 2000, dated 2012)

Columns and labels:
[1] = tested on: MDA-MB-231 breast cancer cells; test: Colony formation assay for doxorubicin resistance, MDA-MB-231 monolayer; format: cell-based, human; conditions: 200 μM doxorubicin
Protocol: The resistance of MDA-MB-231 breast cancer cells to doxorubicin was determined following culture in 20% or 1% oxygen by counting the number of colonies formed. MDA-MB-231 cells were incubated in 1% O2 or 20% O2 for 24 hours. […] The cells were washed and then plated onto 35 mm plates at different dilutions. The cells were incubated for an additional 1-2 weeks in order to allow cell colonies to grow. At the end of the incubation period, the cells were fixed with Carnoy's fixative, stained with Crystal violet, rinsed and allowed to air dry. Colonies were counted visually. The surviving cells under each condition was determined by counting the number of colonies and was expressed as a fraction of the number of colonies that survived without doxorubicin exposure.
Using human MDA-MB-231 breast carcinoma cells in clonogenic assays, survival was determined following doxorubicin exposure and NO mimetic administration to both monolayer and spheroid cultures. […] However, these NO mimetics effectively attenuated the resistance to 200 μM doxorubicin associated with 3D culture by 90% and 30% respectively.

[2] = tested on: human PC-3 prostatic adenocarcinoma cells; conditions: 0.5% vs 20% O2; one-hour doxorubicin
Protocol: (§1) Low tumor oxygenation (hypoxia) correlates with increased metastasis and resistance to radiotherapy and chemotherapy. […] This was followed by a one-hour incubation with doxorubicin and survival was assessed by colony formation assays. Western blot analysis was used to measure NO synthase (NOS) protein levels in cells cultured in 20% and 0.5% O2.

[3] = tested on: mouse TRAMP-C2 prostatic adenocarcinoma cells; conditions: 0.5% vs 20% O2; one-hour doxorubicin
Protocol: as §1

[4] = tested on: MDA-MB-231 breast carcinoma spheroids; test: Clonogenic survival of MDA-MB-231 spheroids after doxorubicin; format: cell-based, human; conditions: 200 μM doxorubicin
Protocol: Following initial cell plating, spheroids formed for 24, 48, 72, 96 or 120 h. At each time point, spheroids were exposed to 200 μM of doxorubicin, then disaggregated and plated for assessment of colony formation (survival).
Spheroids were allowed to form for 72 h. DETA/NO was applied for the final 24 h of spheroid formation. Spheroids were then exposed to doxorubicin for 1 h, prior to disaggregation and plating for assessment of survival by clonogenic assay.
Using human MDA-MB-231 breast carcinoma cells in clonogenic assays, survival was determined following doxorubicin exposure and NO mimetic administration to both monolayer and spheroid cultures.

SMILES: COc1cccc2c1C(=O)c1c(O)c3c(c(O)c1C2=O)C[C@@](O)(C(=O)CO)C[C@@H]3O[C@H]1C[C@H](N)[C@H](O)[C@H](C)O1 [doxorubicin]
- survival in monolayer culture [1]: zero
- increased survival following doxorubicin after pre-incubation under hypoxia [2]: up to 8 fold
- increased survival following doxorubicin after pre-incubation under hypoxia [3]: up to 12 fold
- decrease in survival of tumor cells cultured as spheroids [4]: 90%
